In patent US20230024521A1, “JAK INHIBITORS” (Vimalan Biosciences, Inc., priority 2019, published 2023):

Experiments:
Format in all cases: biochemical
[1] = target: TYK2 (Homo sapiens, UniProt P29597); experiment: JAK/TYK2 assay (Kinase Glo luminescence): Tyk2 kinase assay; settings: 9 nM enzyme, 2 uM ATP, 30 uM IRS-1, 1 hr; read-out: Tyk2 kinase assay: IC50 Geomean
Protocol: (§1) Example A: JAK/TYK2 Assay 10 mM test compound stock or 1 mM control compound stock (tofocitinib, ruxolitinib or staurosporine) in DMSO was diluted to 0.4 mM in DMSO. A 3-fold series dilution was then performed in DMSO to generate 10 different compound concentrations. The assay was carried out in 384-well white plate. 0.5 μL of 40× compound DMSO solution at different concentrations was mixed with 10 uL 2× enzyme prepared in reaction buffer (20 mM HEPES, 10 mM MgCl2, 0.01% Tween, 1 mM DTT, pH 7.5). 10 uL 2× substrate mixture prepared in reaction buffer was then added to start the reaction. A short spin was done to settle down all solutions to the bottom of the plate. Final concentrations of test compound in the reaction mixture were 10000, 3333, 1111, 370, 123, 41.2, 13.7, 4.57, 1.52 and 0.51 nM, Concentrations of control compound were ten times less. Enzymatic reaction was conducted at 25° C. for 1-2 hours. 10 uL of Kinase Glo Reagents was added to stop the reaction and generate the luminescent signal which was measured using Envision. Luminescence signal was inversely related to kinase activity. […] The mixture without any compound was the positive control. [table]

[2] = target: JAK2 (Homo sapiens, UniProt O60674); experiment: JAK/TYK2 assay (Kinase Glo luminescence): Jak2 kinase assay; settings: 0.8 nM enzyme, 2 uM ATP, 4 uM pEY, 1 hr; read-out: Jak2 kinase assay: IC50 Geomean
Sequence of JAK2 (O60674 whole entry, species assumed): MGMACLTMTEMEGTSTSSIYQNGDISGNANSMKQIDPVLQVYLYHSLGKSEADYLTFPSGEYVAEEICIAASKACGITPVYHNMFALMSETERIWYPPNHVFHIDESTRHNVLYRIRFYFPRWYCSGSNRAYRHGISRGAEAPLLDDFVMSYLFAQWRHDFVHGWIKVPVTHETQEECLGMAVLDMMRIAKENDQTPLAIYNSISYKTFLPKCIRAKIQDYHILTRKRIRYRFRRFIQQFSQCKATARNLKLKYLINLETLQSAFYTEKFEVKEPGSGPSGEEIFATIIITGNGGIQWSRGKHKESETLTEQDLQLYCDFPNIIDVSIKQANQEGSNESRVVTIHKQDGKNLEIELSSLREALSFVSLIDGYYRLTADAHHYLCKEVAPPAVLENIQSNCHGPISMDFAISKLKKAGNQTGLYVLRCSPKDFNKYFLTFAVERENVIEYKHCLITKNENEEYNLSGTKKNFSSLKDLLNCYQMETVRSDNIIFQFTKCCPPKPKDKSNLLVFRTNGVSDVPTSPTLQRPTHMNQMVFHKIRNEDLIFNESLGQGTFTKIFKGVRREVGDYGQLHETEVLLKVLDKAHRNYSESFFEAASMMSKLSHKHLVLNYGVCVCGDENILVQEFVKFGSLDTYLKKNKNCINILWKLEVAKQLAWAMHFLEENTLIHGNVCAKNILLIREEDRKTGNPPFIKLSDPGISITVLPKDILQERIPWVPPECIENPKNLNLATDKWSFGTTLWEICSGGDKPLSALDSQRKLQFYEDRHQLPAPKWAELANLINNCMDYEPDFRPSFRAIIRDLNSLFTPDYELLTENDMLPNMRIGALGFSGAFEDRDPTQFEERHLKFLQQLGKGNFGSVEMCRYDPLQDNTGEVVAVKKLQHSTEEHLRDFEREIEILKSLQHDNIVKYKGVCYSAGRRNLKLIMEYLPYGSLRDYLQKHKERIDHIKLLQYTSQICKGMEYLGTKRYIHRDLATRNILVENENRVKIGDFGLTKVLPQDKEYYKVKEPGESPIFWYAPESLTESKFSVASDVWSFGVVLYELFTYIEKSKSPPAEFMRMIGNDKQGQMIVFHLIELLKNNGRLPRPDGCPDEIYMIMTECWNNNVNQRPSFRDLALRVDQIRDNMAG
Protocol: as §1

[3] = target: T1, JAK3 (Homo sapiens, UniProt P52333); experiment: JAK/TYK2 assay (Kinase Glo luminescence): Jak3 kinase assay; settings: 1.5 nM enzyme, 2 uM ATP, 4 uM pEY, 1 hr; read-out: Jak3 kinase assay: IC50 Geomean
T1 sequence (P52333 1-1124): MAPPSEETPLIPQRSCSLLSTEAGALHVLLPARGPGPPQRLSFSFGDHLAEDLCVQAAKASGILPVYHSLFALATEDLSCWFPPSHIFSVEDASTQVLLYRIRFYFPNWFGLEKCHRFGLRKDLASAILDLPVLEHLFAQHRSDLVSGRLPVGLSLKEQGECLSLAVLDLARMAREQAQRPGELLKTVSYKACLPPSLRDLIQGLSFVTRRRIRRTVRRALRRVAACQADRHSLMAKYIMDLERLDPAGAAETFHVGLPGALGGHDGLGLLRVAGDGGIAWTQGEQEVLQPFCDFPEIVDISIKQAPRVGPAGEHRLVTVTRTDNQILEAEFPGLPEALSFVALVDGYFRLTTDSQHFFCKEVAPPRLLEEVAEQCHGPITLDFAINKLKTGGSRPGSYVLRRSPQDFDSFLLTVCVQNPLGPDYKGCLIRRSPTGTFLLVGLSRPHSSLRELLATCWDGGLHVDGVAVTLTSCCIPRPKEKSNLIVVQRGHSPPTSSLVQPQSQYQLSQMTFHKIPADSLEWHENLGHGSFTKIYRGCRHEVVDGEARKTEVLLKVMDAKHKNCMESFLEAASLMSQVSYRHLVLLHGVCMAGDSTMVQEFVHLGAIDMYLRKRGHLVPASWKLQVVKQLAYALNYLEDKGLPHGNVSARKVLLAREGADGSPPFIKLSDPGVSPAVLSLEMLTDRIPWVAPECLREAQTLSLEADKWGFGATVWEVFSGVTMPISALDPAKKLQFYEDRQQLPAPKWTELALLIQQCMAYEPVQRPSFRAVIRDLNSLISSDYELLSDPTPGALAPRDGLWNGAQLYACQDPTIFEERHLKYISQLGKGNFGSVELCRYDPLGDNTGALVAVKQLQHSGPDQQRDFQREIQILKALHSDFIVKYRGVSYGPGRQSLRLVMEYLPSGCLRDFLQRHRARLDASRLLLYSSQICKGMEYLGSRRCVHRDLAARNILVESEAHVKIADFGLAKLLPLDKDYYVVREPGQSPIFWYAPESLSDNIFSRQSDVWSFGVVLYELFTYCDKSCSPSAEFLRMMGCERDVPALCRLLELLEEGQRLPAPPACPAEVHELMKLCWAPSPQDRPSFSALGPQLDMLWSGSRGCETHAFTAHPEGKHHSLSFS
Protocol: as §1

Sequence of TYK2 (P29597 whole entry, species assumed): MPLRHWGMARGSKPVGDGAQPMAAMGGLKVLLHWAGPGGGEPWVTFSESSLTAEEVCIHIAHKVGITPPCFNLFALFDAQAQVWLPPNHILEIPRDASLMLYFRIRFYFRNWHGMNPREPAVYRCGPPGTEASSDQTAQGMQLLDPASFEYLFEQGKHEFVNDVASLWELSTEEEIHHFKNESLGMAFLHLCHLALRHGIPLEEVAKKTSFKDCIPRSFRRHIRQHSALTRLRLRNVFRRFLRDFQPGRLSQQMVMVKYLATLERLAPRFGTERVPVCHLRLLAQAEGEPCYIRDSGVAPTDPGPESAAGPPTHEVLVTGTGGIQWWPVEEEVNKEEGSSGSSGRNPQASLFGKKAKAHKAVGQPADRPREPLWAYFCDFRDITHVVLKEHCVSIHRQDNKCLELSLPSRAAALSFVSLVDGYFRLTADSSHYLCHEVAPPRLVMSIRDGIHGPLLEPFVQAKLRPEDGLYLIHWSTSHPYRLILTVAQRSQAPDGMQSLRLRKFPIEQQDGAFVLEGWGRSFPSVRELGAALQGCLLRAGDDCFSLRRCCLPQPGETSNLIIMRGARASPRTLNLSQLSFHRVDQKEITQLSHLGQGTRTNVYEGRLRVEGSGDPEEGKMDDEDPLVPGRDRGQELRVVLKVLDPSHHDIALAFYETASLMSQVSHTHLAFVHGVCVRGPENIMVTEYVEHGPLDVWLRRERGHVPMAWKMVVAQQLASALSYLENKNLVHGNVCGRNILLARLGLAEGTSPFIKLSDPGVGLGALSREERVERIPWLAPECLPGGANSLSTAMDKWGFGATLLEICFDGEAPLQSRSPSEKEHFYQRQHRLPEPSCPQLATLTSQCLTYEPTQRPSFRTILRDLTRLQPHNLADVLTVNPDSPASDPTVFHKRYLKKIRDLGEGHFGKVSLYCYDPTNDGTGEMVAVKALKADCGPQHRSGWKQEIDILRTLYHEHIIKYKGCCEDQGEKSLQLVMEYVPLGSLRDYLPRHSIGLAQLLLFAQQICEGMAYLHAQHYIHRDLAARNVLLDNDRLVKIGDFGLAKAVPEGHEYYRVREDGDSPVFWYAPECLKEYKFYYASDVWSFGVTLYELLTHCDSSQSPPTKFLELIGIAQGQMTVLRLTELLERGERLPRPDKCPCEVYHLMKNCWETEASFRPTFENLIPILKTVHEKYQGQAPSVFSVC

SMILES | IC50 [1] | IC50 [2] | IC50 [3]
CC[C@H](Cn1ccc2cnc(Nc3cnn(CC(N)=O)c3)nc21)C(C)C [Example 1, (S)-2-(4-((7-(2-ethyl-3-methylbutyl)-7H-pyrrolo[2,3-d]pyrimidin-2-yl)amino)-1H-pyrazol-1-yl) acetamide] | < 100 nM | < 100 nM | < 100 nM
CC[C@H](Cn1ccc2cnc(Nc3cnn(CC(=O)N4CCOC4=O)c3)nc21)C(C)C [Example 3, (5)-3-(2-(4-((7-(2-ethyl-3-methylbutyl)-7H-pyrrolo[2,3-d]pyrimidin-2-yl)amino)-1H-pyrazol-1-yl)acetyl) oxazolidin-2-one] | < 100 nM | < 100 nM | < 100 nM
CCC(CC)Cn1ccc2cnc(Nc3cnn(CC(N)=O)c3)nc21 [Example 7, 2-(4-((7-(2-ethylbutyl)-7H-pyrrolo[2,3-d]pyrimidin-2-yl)amino)-1H-pyrazol-1-yl) acetamide] | < 100 nM | < 100 nM | < 100 nM
CC[C@@H](Cn1ccc2cnc(Nc3cnn(C4CCNC4=O)c3)nc21)C(C)C (stereo partly drawn) [Example 8] | < 100 nM | < 100 nM | < 100 nM
